# Laboratory results taken from US12492173B2, “Herbicidal substituted N-tetrazolyl aryl carboxamides” (Bayer Aktiengesellschaft, priority 2019, dated 2025).
# Test system: Lolium rigidum
# Assay: Pre-emergence herbicidal action, LOLRI
# Assay type: in vivo
# Conditions: dosage 320 g/ha, scored visually after 3 weeks vs untreated controls (100% = plants have died)
# From the text: 1. Pre-Emergence Herbicidal Action Against Harmful Plants Seeds of monocotyledonous and dicotyledonous weed plants and crop plants are laid out in sandy loam soil in wood-fiber pots and covered with soil. The compounds of the invention, formulated in the form of wettable powders (WP) or as emulsion concentrates (EC), are then applied to the surface of the covering soil in the form of an aqueous suspension or emulsion at a water application rate equating to 600 to 800 l/ha, with addition of 0.2% wetting agent. After the treatment, the pots are placed in a greenhouse and kept under good growth conditions for the trial plants. The damage to the test plants is scored visually after a test period of 3 weeks by comparison with untreated controls (herbicidal activity in percent (%): 100% activity=the plants have died, 0% activity=like control plants). […] The tables below illustrate, in an exemplary manner, the […] herbicidal action of the compounds according to the invention, the herbicidal activity being stated in percent. [table] In the experiments that follow, herbicidal action of numerous inventive compounds and the known compounds that are structurally closest from D1 (WO 2012/028579 A1) and D2 (WO 2018/202535 A1) were compared under the above-specified conditions by the pre-emergence and post-emergence method. The example numbers given in the tables relate to the compounds disclosed in the respective documents. In addition to the compounds disclosed in D1 and D2, the following compounds V-1 to V-14 that are encompassed by D1 or D2 but are not compounds specified therein were used in the comparative experiments: • V-1: 2-(methylsulfanyl)-3-(methylsulfinyl)-N-(1-methyl-1H-tetrazol-5-yl)-4-(trifluoromethyl)benzamide • V-2: 2-(methylsulfanyl)-3-(methylsulfonyl)-N-(1-methyl-1H-tetrazol-5-yl)-4-(trifluoromethyl)benzamide • V-3: 2,3-bis(ethylsulfanyl)-N-(1-methyl-1H-tetrazol-5-yl)-4-(trifluoromethyl)benzamide • V-4: 2-chloro-3-(ethylsulfanyl)-N-(1-methyl-1H-tetrazol-5-yl)-4-(trifluoromethyl)benzamide • V-5: 2-chloro-4-iodo-3-(methylsulfanyl)-N-(1-methyl-1H-tetrazol-5-yl)benzamide • V-6: 2-chloro-4-iodo-3-(methylsulfinyl)-N-(1-methyl-1H-tetrazol-5-yl)benzamide • V-7: 2-chloro-4-iodo-3-(methylsulfonyl)-N-(1-methyl-1H-tetrazol-5-yl)benzamide • V-8: 2-bromo-3-(methylsulfanyl)-N-(1-methyl-1H-tetrazol-5-yl)-4-(trifluoromethyl)benzamide • V-9: 2-bromo-3-(methylsulfinyl)-N-(1-methyl-1H-tetrazol-5-yl)-4-(trifluoromethyl)benzamide • V-10: 2-bromo-3-(methylsulfonyl)-N-(1-methyl-1H-tetrazol-5-yl)-4-(trifluoromethyl)benzamide • V-11: 2-bromo-3-(ethylsulfanyl)-N-(1-methyl-1H-tetrazol-5-yl)-4-(trifluoromethyl)benzamide • V-12: 2-bromo-3-(ethylsulfinyl)-N-(1-methyl-1H-tetrazol-5-yl)-4-(trifluoromethyl)benzamide • V-13: 2-bromo-3-(ethylsulfonyl)-N-(1-methyl-1-1H-tetrazol-5-yl)-4-(trifluoromethyl)benzamide • V-14: 2-cyclopropyl-3-(ethylsulfanyl)-N-(1-methyl-1H-tetrazol-5-yl)-4-(trifluoromethyl)benzamide Herbicidal Pre-Emergence Action: […]
row,Structure (SMILES),herbicidal activity LOLRI
1,Cn1nnnc1NC(=O)c1ccc(C(F)(F)F)c(CSCC(F)(F)F)c1Cl [Example 1-311],100%
2,CC[S+]([O-])Cc1c(C(F)(F)F)ccc(C(=O)Nc2nnnn2C)c1Cl (racemic) [Example 1-300],100%
3,CSc1c(C(=O)Nc2nnnn2C)ccc(C(F)(F)F)c1C[S+](C)[O-] (centres unmarked) [Example 1-162],90%
4,COCCSCc1c(C(F)(F)F)ccc(C(=O)Nc2nnnn2C)c1Cl [Example 1-305],90%
5,Cn1nnnc1NC(=O)c1ccc(C(F)(F)F)c(CSCC2CC2)c1Cl [Example 1-314],100%
6,Cn1nnnc1NC(=O)c1ccc(C(F)(F)F)c(CSC2CC2)c1Cl [Example 1-302],100%
7,Cn1nnnc1NC(=O)c1ccc(C(F)(F)F)c(CS(=O)(=O)CC2CC2)c1Cl [Example 1-316],90%
8,CCCn1nnnc1NC(=O)c1ccc(C(F)F)c(CS(=O)(=O)CC)c1Cl [Example 3-325],100%
9,CSCc1c(I)ccc(C(=O)Nc2nnnn2C)c1Cl [Example 1-362],80%

# Test system: Stellaria media
# Assay: Pre-emergence herbicidal action, STEME
# Assay type: in vivo
# Set-up: key to Herbicidal action against STEME: % activity: 100 = plants have died, 0 = like control plants
# Conditions: comparative experiment, 20 g of a.i./ha
# Procedure, shortened: (§1)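 Herbicidal activity is expressed in percent, scored by eye after a 3-week greenhouse period, with 0% matching untreated plants and 100% meaning death. Compounds, as wettable powders or emulsion concentrates, are applied pre-emergence to the covering soil.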
row,Structure (SMILES),Herbicidal action against STEME
1,CSCc1c(I)ccc(C(=O)Nc2nnnn2C)c1Cl [Example 1-362],90

# Same assay, conditions: dosage 320 g/ha, scored visually after 3 weeks vs untreated controls (100% = plants have died)
row,Structure (SMILES),herbicidal activity STEME
1,Cn1nnnc1NC(=O)c1ccc(C(F)(F)F)c(CSCC(F)(F)F)c1Cl [Example 1-311],100%
2,CC[S+]([O-])Cc1c(C(F)(F)F)ccc(C(=O)Nc2nnnn2C)c1Cl (racemic) [Example 1-300],100%
3,CSc1c(C(=O)Nc2nnnn2C)ccc(C(F)(F)F)c1C[S+](C)[O-] (centres unmarked) [Example 1-162],100%
4,COCCSCc1c(C(F)(F)F)ccc(C(=O)Nc2nnnn2C)c1Cl [Example 1-305],100%
5,Cn1nnnc1NC(=O)c1ccc(C(F)(F)F)c(CSCC2CC2)c1Cl [Example 1-314],90%
6,Cn1nnnc1NC(=O)c1ccc(C(F)(F)F)c(CSC2CC2)c1Cl [Example 1-302],100%
7,Cn1nnnc1NC(=O)c1ccc(C(F)(F)F)c(CS(=O)(=O)CC2CC2)c1Cl [Example 1-316],100%
8,CCCn1nnnc1NC(=O)c1ccc(C(F)F)c(CS(=O)(=O)CC)c1Cl [Example 3-325],100%
9,CSCc1c(I)ccc(C(=O)Nc2nnnn2C)c1Cl [Example 1-362],100%

# Test system: Veronica persica
# Assay: Post-emergence herbicidal action, VERPE
# Assay type: in vivo
# Set-up: key: % herbicidal action vs untreated; 100 = plants died, 0 = like control
# Conditions: Dosage 80 g/ha
# Procedure, shortened: (§2)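 After sowing into sandy loam, plants grew 2 to 3 weeks under greenhouse conditions until one leaf, then got a spray of compound as aqueous suspension or emulsion. Roughly three weeks on, activity was estimated visually against untreated pots.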
row,Structure (SMILES),herbicidal action VERPE
1,Cn1nnnc1NC(=O)c1ccc(C(F)(F)F)c(CSCC(F)(F)F)c1Cl [Example 1-311],100
2,Cn1nnnc1NC(=O)c1ccc(C(F)(F)F)c(CS(=O)(=O)CC2CC2)c1Cl [Example 1-316],100

# Same assay, conditions: post-emergence, dosage 80 g/ha
row,Structure (SMILES),herbicidal action VERPE
1,CC[S+]([O-])Cc1c(C(F)(F)F)ccc(C(=O)Nc2nnnn2C)c1Cl (racemic) [Example 1-300],100%
2,CSc1c(C(=O)Nc2nnnn2C)ccc(C(F)(F)F)c1C[S+](C)[O-] (centres unmarked) [Example 1-162],100%
3,COCCSCc1c(C(F)(F)F)ccc(C(=O)Nc2nnnn2C)c1Cl [Example 1-305],90%
4,Cn1nnnc1NC(=O)c1ccc(C(F)(F)F)c(CSCC2CC2)c1Cl [Example 1-314],100%
5,Cn1nnnc1NC(=O)c1ccc(C(F)(F)F)c(CSC2CC2)c1Cl [Example 1-302],90%
6,CSCc1c(I)ccc(C(=O)Nc2nnnn2C)c1Cl [Example 1-362],100%

# Test system: Hordeum murinum
# Assay: Pre-emergence herbicidal action, HORMU
# Assay type: in vivo
# Conditions: dosage 320 g/ha, scored visually after 3 weeks vs untreated controls (100% = plants have died)
# Procedure, shortened: as §1
row,Structure (SMILES),herbicidal activity HORMU
1,Cn1nnnc1NC(=O)c1ccc(C(F)(F)F)c(CSCC(F)(F)F)c1Cl [Example 1-311],100%
2,CC[S+]([O-])Cc1c(C(F)(F)F)ccc(C(=O)Nc2nnnn2C)c1Cl (racemic) [Example 1-300],100%
3,CSc1c(C(=O)Nc2nnnn2C)ccc(C(F)(F)F)c1C[S+](C)[O-] (centres unmarked) [Example 1-162],80%
4,COCCSCc1c(C(F)(F)F)ccc(C(=O)Nc2nnnn2C)c1Cl [Example 1-305],100%
5,Cn1nnnc1NC(=O)c1ccc(C(F)(F)F)c(CSCC2CC2)c1Cl [Example 1-314],100%
6,Cn1nnnc1NC(=O)c1ccc(C(F)(F)F)c(CSC2CC2)c1Cl [Example 1-302],100%
7,Cn1nnnc1NC(=O)c1ccc(C(F)(F)F)c(CS(=O)(=O)CC2CC2)c1Cl [Example 1-316],90%
8,CCCn1nnnc1NC(=O)c1ccc(C(F)F)c(CS(=O)(=O)CC)c1Cl [Example 3-325],100%
9,CSCc1c(I)ccc(C(=O)Nc2nnnn2C)c1Cl [Example 1-362],80%

# Test system: Cyperus esculentus
# Assay: Post-emergence herbicidal action, CYPES
# Assay type: in vivo
# Set-up: key: % herbicidal action vs untreated; 100 = plants died, 0 = like control
# Conditions: Dosage 80 g/ha
# Procedure, shortened: as §2
row,Structure (SMILES),herbicidal action CYPES
1,Cn1nnnc1NC(=O)c1ccc(C(F)(F)F)c(CSCC(F)(F)F)c1Cl [Example 1-311],100
2,CCCn1nnnc1NC(=O)c1ccc(C(F)F)c(CS(=O)(=O)CC)c1Cl [Example 3-325],90

# Same assay, conditions: comparative experiment, post-emergence, 5 g of a.i./ha
row,Structure (SMILES),Herbicidal action against CYPES
1,CSCc1c(I)ccc(C(=O)Nc2nnnn2C)c1Cl [Example 1-362],30

# Same assay, conditions: post-emergence, dosage 80 g/ha
row,Structure (SMILES),herbicidal action CYPES
1,CSc1c(C(=O)Nc2nnnn2C)ccc(C(F)(F)F)c1C[S+](C)[O-] (centres unmarked) [Example 1-162],80%
2,COCCSCc1c(C(F)(F)F)ccc(C(=O)Nc2nnnn2C)c1Cl [Example 1-305],90%
3,Cn1nnnc1NC(=O)c1ccc(C(F)(F)F)c(CSCC2CC2)c1Cl [Example 1-314],80%
4,Cn1nnnc1NC(=O)c1ccc(C(F)(F)F)c(CSC2CC2)c1Cl [Example 1-302],80%

# Test system: Abutilon theophrasti
# Assay: Pre-emergence herbicidal action, ABUTH
# Assay type: in vivo
# Set-up: key to Herbicidal action against ABUTH: % activity: 100 = plants have died, 0 = like control plants
# Conditions: comparative experiment, 20 g of a.i./ha
# Procedure, shortened: as §1
row,Structure (SMILES),Herbicidal action against ABUTH
1,CSc1c(C(=O)Nc2nnnn2C)ccc(C(F)(F)F)c1C[S+](C)[O-] (centres unmarked) [Example 1-162],100

# Same assay, conditions: dosage 320 g/ha, scored visually after 3 weeks vs untreated controls (100% = plants have died)
row,Structure (SMILES),herbicidal activity ABUTH
1,Cn1nnnc1NC(=O)c1ccc(C(F)(F)F)c(CSCC(F)(F)F)c1Cl [Example 1-311],100%
2,CC[S+]([O-])Cc1c(C(F)(F)F)ccc(C(=O)Nc2nnnn2C)c1Cl (racemic) [Example 1-300],100%
3,CSc1c(C(=O)Nc2nnnn2C)ccc(C(F)(F)F)c1C[S+](C)[O-] (centres unmarked) [Example 1-162],100%
4,COCCSCc1c(C(F)(F)F)ccc(C(=O)Nc2nnnn2C)c1Cl [Example 1-305],100%
5,Cn1nnnc1NC(=O)c1ccc(C(F)(F)F)c(CSCC2CC2)c1Cl [Example 1-314],100%
6,Cn1nnnc1NC(=O)c1ccc(C(F)(F)F)c(CSC2CC2)c1Cl [Example 1-302],100%
7,Cn1nnnc1NC(=O)c1ccc(C(F)(F)F)c(CS(=O)(=O)CC2CC2)c1Cl [Example 1-316],100%
8,CCCn1nnnc1NC(=O)c1ccc(C(F)F)c(CS(=O)(=O)CC)c1Cl [Example 3-325],100%
9,CSCc1c(I)ccc(C(=O)Nc2nnnn2C)c1Cl [Example 1-362],100%
